The values below come from PubChem BioAssay (NCI).

Some test systems named below: CAKI-1 renal; IGROV1 ovarian; MALME-3M melanoma; MOLT-4 leukemia; RXF 393 renal; SF-268 CNS; SK-MEL-28 melanoma; M14 melanoma; MDA-MB-435.
Common to all, as to test: inhibition of tumour cell growth, NCI panel, 48 h

Molecules are shown by their SMILES.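 Briefly, cells in 96-well plates were exposed to five compound concentrations for 48 h, and endpoints were estimated by linear interpolation. GI50 = concentration required for 50% inhibition of growth. TGI is the concentration that stops growth completely.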 Bounds are passed on as bounds.

For the molecule `COc1ccc(/C=N/N=C(\N)NO)c(Cl)c1O`, the TGI was 54.8 µM in the assay with CAKI-1 renal; greater than 100 µM in the assay on IGROV1 ovarian; greater than 100 µM in the assay on MALME-3M melanoma; greater than 100 µM with MOLT-4 leukemia; greater than 100 µM in the assay on RXF 393 renal; greater than 100 µM with SF-268 CNS. Further, the TGI with SK-MEL-28 melanoma is greater than 100 µM.
Turning to `COc1ccccc1/C=C/C(=O)c1c(O)cc2occc2c1OC`, the GI50 is greater than 100 µM in the assay with CAKI-1 renal; 26 µM in the assay with IGROV1 ovarian; greater than 100 µM with M14 melanoma; 18.9 µM with MALME-3M melanoma; 5.96 µM with MDA-MB-435; 14.9 µM in the assay with RXF 393 renal. The values for the GI50 in the assay on SF-268 CNS and in the assay on SK-MEL-28 melanoma were 22.2 µM and greater than 100 µM, respectively. Besides, the TGI in the assay with CAKI-1 renal is greater than 100 µM; in the assay with IGROV1 ovarian it was greater than 100 µM; with M14 melanoma it was greater than 100 µM; with MALME-3M melanoma, 80.6 µM; in the assay with MDA-MB-435 it was greater than 100 µM; in the assay on RXF 393 renal it was 42.6 µM. In addition, the TGI with SF-268 CNS and in the assay on SK-MEL-28 melanoma was greater than 100 µM each time.
Consider `COc1cc2c3c(c4ccc(OC)c(OC)c4c2cc1OC)CN1CCC[C@@H]1C3`, for which the TGI was 1.1 µM in the assay with CAKI-1 renal; 0.935 µM in the assay with IGROV1 ovarian; 2.56 µM in the assay on M14 melanoma; 0.509 µM in the assay on MALME-3M melanoma; 5.83 µM in the assay with MDA-MB-435; 0.252 µM with MOLT-4 leukemia. Further, the TGI was found to be 0.29 µM in the assay with RXF 393 renal, 2.38 µM in the assay on SF-268 CNS and 7.43 µM in the assay with SK-MEL-28 melanoma.
With `COc1ccc(/C=C/C(=O)C(C)(C)CN2CCCCC2)cc1`, the TGI in the assay with IGROV1 ovarian was determined as 65.8 µM; with M14 melanoma it was 32.2 µM; with MALME-3M melanoma it was 79.8 µM; in the assay on MOLT-4 leukemia it was 47.9 µM; with RXF 393 renal it was 38 µM; in the assay with SF-268 CNS, 59.8 µM. In the assay with SK-MEL-28 melanoma, this molecule gave a TGI of 65.9 µM.
Turning to `C[N+](C)(C)CC(=O)N/N=C(\CCC(=O)NCCc1ccccc1)CC(=O)c1ccccc1`, the TGI with CAKI-1 renal, in the assay with IGROV1 ovarian, with M14 melanoma, in the assay on MALME-3M melanoma, in the assay on MOLT-4 leukemia and with SF-268 CNS was greater than 100 µM throughout.
As to `N#CC(/C(=N\NC(=O)c1ccncc1)C(=O)Nc1ccc([N+](=O)[O-])cc1[N+](=O)[O-])c1nc(-c2ccc(Br)cc2)cs1` (stereo unspecified), the TGI in the assay with CAKI-1 renal, with IGROV1 ovarian, in the assay on M14 melanoma, in the assay with MALME-3M melanoma, with MOLT-4 leukemia and in the assay with SF-268 CNS was greater than 100 µM in each case. The TGI with SK-MEL-28 melanoma is greater than 100 µM.
For `c1ccc(N=c2snc3scc(-c4ccccc4)n23)cc1`, the TGI in the assay with CAKI-1 renal is greater than 100 µM; with IGROV1 ovarian, greater than 100 µM; in the assay on M14 melanoma, 96.2 µM; with MALME-3M melanoma it was 98.6 µM; in the assay on MOLT-4 leukemia it was 79.6 µM; in the assay with RXF 393 renal, greater than 100 µM. For the same molecule, the TGI in the assay with SF-268 CNS and with SK-MEL-28 melanoma was greater than 100 µM throughout.
For the molecule `CCSC(SCC)c1cc2c(cc1Br)OCO2`, the TGI in the assay with IGROV1 ovarian was greater than 100 µM; in the assay with M14 melanoma, 56.2 µM; in the assay on MOLT-4 leukemia, 42.2 µM; with RXF 393 renal, 89.3 µM; in the assay with SF-268 CNS, greater than 100 µM; in the assay with SK-MEL-28 melanoma, greater than 100 µM.
On to `CSc1nc(NC2OCC(OC(C)=O)C(OC(C)=O)C2OC(C)=O)c(N=C(C)C(C)=O)c(=O)n1C` (stereo unspecified), for which the TGI in the assay on CAKI-1 renal, with IGROV1 ovarian, in the assay on M14 melanoma, in the assay on MALME-3M melanoma, in the assay on MOLT-4 leukemia and with RXF 393 renal was greater than 100 µM in each case.
Take `COc1ccccc1-c1cc(/C=C2\C(=O)Nc3ncc(Br)cc32)cc(Br)c1O`: the GI50 in the assay on CAKI-1 renal is 10.1 µM; in the assay on IGROV1 ovarian, 10.4 µM; with M14 melanoma, 12.9 µM; in the assay with MALME-3M melanoma, 16.4 µM; with MDA-MB-435 it was 7.47 µM; in the assay on MOLT-4 leukemia, 9.31 µM. For the same molecule, the values for the GI50 with RXF 393 renal, in the assay on SF-268 CNS and in the assay with SK-MEL-28 melanoma were 6.77 µM, 11.1 µM and 14.8 µM, respectively. In addition, the TGI in the assay on CAKI-1 renal, in the assay on IGROV1 ovarian, in the assay on M14 melanoma, in the assay with MALME-3M melanoma, in the assay with MDA-MB-435 and in the assay with MOLT-4 leukemia was greater than 25 µM each time. Moreover, the TGI in the assay with RXF 393 renal, in the assay with SF-268 CNS and in the assay with SK-MEL-28 melanoma was greater than 25 µM each time.
In the case of `NCCCCCCCCn1c2c(c3ccccc3c1=O)C(=O)c1ccccc1-2`, the GI50 was 3.25 µM with CAKI-1 renal; 3.4 µM in the assay on M14 melanoma; 2.85 µM in the assay with MALME-3M melanoma; 5.63 µM in the assay on MDA-MB-435; 1.82 µM in the assay on MOLT-4 leukemia; 4.58 µM in the assay on RXF 393 renal. The values for the GI50 in the assay with SF-268 CNS and in the assay on SK-MEL-28 melanoma were 6.44 µM and 2.87 µM, respectively. The TGI was 9.03 µM with CAKI-1 renal; 10.4 µM with M14 melanoma; 8.86 µM with MALME-3M melanoma; 21.5 µM in the assay with MDA-MB-435; 3.53 µM with MOLT-4 leukemia; greater than 100 µM in the assay on RXF 393 renal. Besides, the TGI with SF-268 CNS was greater than 100 µM; in the assay on SK-MEL-28 melanoma, 8.47 µM.
With `O=C(NCCc1ccccc1)C(c1ccccc1)(c1ccccc1)c1ccccc1`, the GI50 is 4.16 µM with CAKI-1 renal; 28.8 µM in the assay on IGROV1 ovarian; 12.2 µM in the assay with MDA-MB-435; greater than 100 µM with MOLT-4 leukemia; 30 µM in the assay with SF-268 CNS; 20.1 µM with SK-MEL-28 melanoma. Besides, the TGI was 26.1 µM in the assay with CAKI-1 renal; 70 µM in the assay with IGROV1 ovarian; 45.8 µM in the assay with MDA-MB-435; greater than 100 µM with MOLT-4 leukemia; greater than 100 µM in the assay on SF-268 CNS; greater than 100 µM with SK-MEL-28 melanoma.
Take `COC(=O)C(Cc1cnc[nH]1)NC(=O)CNC(=O)CCCn1c(=O)c2c3ccccc3n(C)c2n2nnc(-c3ccccc3)c12` (stereo unspecified): the GI50 in the assay on CAKI-1 renal is greater than 100 µM; in the assay with IGROV1 ovarian it was 72.5 µM; with M14 melanoma, greater than 100 µM; in the assay on MALME-3M melanoma, greater than 100 µM; in the assay with MDA-MB-435 it was greater than 100 µM; in the assay on MOLT-4 leukemia, greater than 100 µM. Moreover, the GI50 in the assay on RXF 393 renal, with SF-268 CNS and in the assay with SK-MEL-28 melanoma was greater than 100 µM each time. For the same molecule, the TGI in the assay with CAKI-1 renal, in the assay with IGROV1 ovarian, in the assay with M14 melanoma, in the assay on MALME-3M melanoma, in the assay on MDA-MB-435 and in the assay with MOLT-4 leukemia was greater than 100 µM throughout. The TGI in the assay on RXF 393 renal, in the assay with SF-268 CNS and in the assay with SK-MEL-28 melanoma was greater than 100 µM in each case.
